From ChEMBL document CHEMBL1201862, “PubChem BioAssay data set” (2004) come the findings set out here.

Among the test systems are NCI-H23; UO-31; NCI/ADR-RES; SF-539; ACHN; IGROV-1; SN12C; BT-549; OVCAR-5; CCRF-CEM; PC-3; A549; HCT-116; Hs-578T; K562; Malme-3M; TK-10; MOLT-4; DMS-114; COLO 205.
Holding throughout (assay): DTP human tumour cell line panel, 48 h

Where a name gives a salt, the structure may show the parent alone.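 48-hour exposure; five concentrations; linearly interpolated endpoints. Abbreviation: GI50, concentration required for 50% inhibition of growth.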 The source made the active and inactive calls. No stated cut-off is given here; in the data, active = GI50 up to about 1.1 µM and inactive = higher.

Broadly, the GI50 is the concentration that inhibits growth by half.

For `NCCSSCCN` [CYSTAMINE HYDROCHLORIDE], the GI50 with NCI-H23, in the assay with UO-31, in the assay on NCI/ADR-RES, in the assay on SF-539, with ACHN and in the assay on IGROV-1 was > 100 µM (inactive) each time. In addition, the GI50 was > 100 µM (inactive) in the assay with SN12C; > 100 µM (inactive) in the assay with BT-549; > 100 µM (inactive) with OVCAR-5; 56.1 µM (inactive) in the assay on CCRF-CEM; > 100 µM (inactive) with PC-3; > 100 µM (inactive) with A549. Further, the GI50 in the assay on HCT-116, in the assay on Hs-578T, in the assay with K562, in the assay on Malme-3M, in the assay with TK-10 and with MOLT-4 was > 100 µM (inactive) each time. For the same molecule, the GI50 with DMS-114 and in the assay on COLO 205 was > 100 µM (inactive) each time.

In the case of `CCCCCCCCCCCCCC(=O)OC(/C=C/C(C)C)C(O)C(O)C(OC)C(=O)NC1CCCCN(C)C1=O` (stereo not drawn), the GI50 with NCI-H23 is 9.91 µM (inactive); in the assay on UO-31, 1.34 µM (inactive); in the assay with NCI/ADR-RES, > 10 µM (inactive); in the assay on SF-539 it was 3.62 µM (inactive); in the assay with ACHN it was 4.31 µM (inactive); in the assay with IGROV-1 it was 0.457 µM (active). Also, the GI50 was 3.23 µM (inactive) in the assay on SN12C; > 10 µM (inactive) in the assay on BT-549; 4.36 µM (inactive) in the assay on OVCAR-5; 3.95 µM (inactive) in the assay on CCRF-CEM; 7.48 µM (inactive) in the assay on PC-3; 0.575 µM (active) in the assay on A549. The 50% growth inhibitory concentration (GI50) was 0.927 µM (active) in the assay on HCT-116; > 10 µM (inactive) in the assay on Hs-578T; 2.59 µM (inactive) in the assay with K562; 2.11 µM (inactive) with Malme-3M; 7.05 µM (inactive) in the assay with TK-10; 2.7 µM (inactive) in the assay on MOLT-4. The GI50 is 1.2 µM (inactive) with DMS-114 and 1.85 µM (inactive) in the assay on COLO 205.

With `COc1cc(/C=C/C(=N\NC(=O)c2ccccc2)c2sc(Nc3ccc(Cl)c(Cl)c3)nc2C)ccc1O`, the GI50 is 25.7 µM (inactive) with NCI-H23; 28.8 µM (inactive) with UO-31; 40.8 µM (inactive) with SF-539; 26.8 µM (inactive) in the assay on ACHN; 35.6 µM (inactive) in the assay on IGROV-1; 33 µM (inactive) with SN12C. Further, the GI50 was 25.6 µM (inactive) in the assay on OVCAR-5; 27.9 µM (inactive) with CCRF-CEM; 31.7 µM (inactive) in the assay with A549; 28.2 µM (inactive) with HCT-116; 25.2 µM (inactive) in the assay on K562; 29.4 µM (inactive) with Malme-3M. In addition, the GI50 in the assay with TK-10 is 37.5 µM (inactive); with MOLT-4, 20.7 µM (inactive); in the assay with DMS-114 it was 23.8 µM (inactive); with COLO 205, 34 µM (inactive).

Take `Cc1n(-c2ccccc2)c2c([n+]1Cc1ccc([N+](=O)[O-])cc1)C(=O)c1ccccc1C2=O`: the GI50 in the assay on NCI-H23 is 1.9 µM (inactive); in the assay with UO-31, 13.1 µM (inactive); in the assay with NCI/ADR-RES it was 2.05 µM (inactive); in the assay with SF-539, 1.97 µM (inactive); in the assay with ACHN, 3.72 µM (inactive); with IGROV-1 it was 0.855 µM (active). The GI50 with SN12C was 1.64 µM (inactive); in the assay with BT-549, 1.79 µM (inactive); in the assay with OVCAR-5, 2.02 µM (inactive); in the assay with CCRF-CEM, 1.82 µM (inactive); with PC-3, 2.25 µM (inactive); in the assay on A549, 3.56 µM (inactive). Further, the GI50 with HCT-116 is 2.02 µM (inactive); in the assay on Hs-578T it was 1.78 µM (inactive); in the assay with K562, 1.16 µM (inactive); in the assay on Malme-3M, 1.67 µM (inactive); with TK-10, 7.66 µM (inactive); in the assay with MOLT-4 it was 0.59 µM (active). For the same molecule, the GI50 was 0.386 µM (active) with DMS-114 and 1.59 µM (inactive) with COLO 205.

Consider `O=c1/c(=C/c2ccc3c(c2)OCO3)sc2nnc(-c3ccco3)n12`, for which the GI50 in the assay on NCI-H23, in the assay with UO-31, in the assay with SF-539, with ACHN, in the assay on IGROV-1 and in the assay on SN12C was > 100 µM (inactive) in each case. In addition, the GI50 with OVCAR-5, in the assay with CCRF-CEM, in the assay with A549, in the assay with HCT-116, in the assay on K562 and in the assay on Malme-3M was > 100 µM (inactive) each time. Moreover, the GI50 in the assay on TK-10, with MOLT-4, with DMS-114 and in the assay on COLO 205 was > 100 µM (inactive) throughout.

As for `COc1cc2c(cc1O)CC13CCC(=O)N1CCc1cc(OC)c(O)c-2c13` (stereo not drawn), the GI50 in the assay on NCI-H23, with UO-31, in the assay with SF-539, in the assay with ACHN, in the assay with IGROV-1 and in the assay with SN12C was > 68.1 µM (inactive) throughout. Moreover, the GI50 in the assay with OVCAR-5, with CCRF-CEM, in the assay on A549, with HCT-116, in the assay with K562 and in the assay with Malme-3M was > 68.1 µM (inactive) in each case. Further, the GI50 in the assay on TK-10, in the assay on MOLT-4, in the assay with DMS-114 and in the assay with COLO 205 was > 68.1 µM (inactive) throughout.
